Reference: US7951990B2, “Method and means for determining fitness in plants” (Bayer Bioscience N.V., priority 2001, dated 2011)

Columns and labels:
Type in all cases: cell-based, Brassica napus
[1] = tested on: cytochromal and alternative respiratory pathways
[2] = tested on: electron flow in the mitochondrial electron transport chain (TTC-reducing capacity of hypocotyl explants); test: vigour assay (TTC-assay) with acetylsalicylic acid added to the incubation medium; conditions: for TTC-reducing capacity after treatment versus control condition / TTC-reducing capacity after treatment: 25 mg/l; for TTC-reducing capacity after treatment versus control condition: about 18 hours
[3] = tested on: superoxide production by the hypocotyl explants; test: quantification of superoxide production by hypocotyl explants (XTT reduction); conditions: 25 mg/l, incubation for 18 hours; all four hybrid lines

| Structure (SMILES) | influence on the TTC reduction [1] | TTC-reducing capacity after treatment versus control condition ([2]; hybrid line 13 (lowest seed yield)) | TTC-reducing capacity after treatment versus control condition ([2]; hybrid line 41 (highest seed yield)) | TTC-reducing capacity after treatment ([2]; parental line DH7 (poor combining ability)) | TTC-reducing capacity after treatment ([2]; parental lines A and B (excellent combining ability)) | TTC-reducing capacity after treatment ([2]; parental lines DH4, DH5 and DH10 (moderate to good combining ability)) | TTC-reducing capacity ([2]; 50 mg/l, best performing hybrid lines) | TTC-reducing capacity ([2]; 50 mg/l, hybrid lines with a less pronounced heterosis) | TTC-reducing capacity ([2]; 100 mg/l, best performing hybrid lines) | XTT reduction (superoxides) [3] |
| --- | --- | --- | --- | --- | --- | --- | --- | --- | --- | --- |
| O=C(NO)c1ccccc1O [SHAM, salicylhydroxamic acid] | does not seem to have a major influence | – | – | – | – | – | – | – | – | – |
| CC(=O)Oc1ccccc1C(=O)O [acetylsalicylic acid] | – | increased drastically | strongest decrease | high increase | decreased | no or only a small increase | increased | didn't show at 50 mg/l acetylsalicylic acid this increase | decrease again | lower amounts of XTT were reduced |
